Data on 2 molecules can be found in US11673853B2, “Small molecule AMPK activators” (University of Pittsburgh—Of the Commonwealth System of …, priority 2016, dated 2023).

For experiment [1], the system named is mice. In words: Cecal ligation and puncture (CLP)-induced sepsis model. Conditions: 10 mg/kg i.p., 24 h. Type of experiment: in vivo. Here is the method:
FIG. 6. Mice were anesthetized prior to the cecal ligation and puncture (CLP) procedure. Compound 12 (10 mg/kg) was then administered immediately afterwards through an intraperitoneal (i.p.) injection. After 24 h, mice were euthanized and blood was collected for assays of IL-6, TNF, and IL1-β levels. Peritoneal fluid was obtained for determination of bacterial counts after CLP in mice. The lungs were also lavaged with saline, harvested, and then homogenized. Lavage cytokine secretion (C-E), protein (A), cell counts (B) were measured. The data represent n=4-5 mice/group, *P<0.05 Compound 12 versus vehicle. Presence of AMPK and pAMPK was also determined (F).
Compound 12 was examined in a model of cecal ligation and puncture (CLP)-induced sepsis.

The next experiment relates to pAMPK. In words: pAMPK immunoblotting in Beas2B cells (Table 1). Type of experiment: cell-based. Particulars: Homo sapiens, BEAS-2B, DMEM media without glucose, compounds 18 h. The protocol:
Additional compounds in Table 1 were or can be prepared according to the above-described Examples. Human bronchial epithelial cells (Beas2B) were seeded in 6-well plates for 18 h. Cells were then exposed to DMEM media without glucose and compounds at various concentrations for an additional 18 h before being collected for immunoblotting.

Experiment [2] has as its system mice. The experiment can be described thus: Pseudomonas (PA103) pneumonia model. Type of experiment: in vivo. Conditions: 2 or 10 mg/kg i.p., PA103 i.t., 18 h. Here is the method: FIG. 7. Compound 12 (2 or 10 mg/kg) was administered to mice though an i.p. injection, and mice were immediately challenged with P. aeruginosa (strain PA103, 1.5*10^4 cfu/mouse, i.t.) or without (control, CON) for an additional 18 h. Mice were then euthanized and lungs were lavaged with saline, harvested, and then homogenized. Lavage protein, cell counts, bacterial count and cytokine secretions (A-C) were measured. Lungs were homogenized before being assayed by immunoblotting. The data are representative of data from n=5-6 mice/group, *P<0.05 versus vehicle.
Compound 12 was tested in two pneumonia model using Pseudomonas or LPS endotoxin.

The subject of a further experiment is AMPKα1 and AMPKα2 mRNA. In words: AMPK mRNA analysis in Beas2b cells. Type of experiment: cell-based, Human. Conditions: glucose-free media, 18 h. The protocol: (§1) FIG. 4. (A) Beas2b cells were cultured in DMEM 2% media with glucose for 24 h before switching to glucose-free media. Cells were then exposed to Compound 12 in a dose dependent manner for 18 h before being collected for immunoblotting. (B) Beas2b cells were cultured in DMEM 2% media with glucose for 24 h before Compound 12 treatment in a dose dependent manner. After 18 h, cells were then collected for immunoblotting. (C) Beas2b cells were cultured in DMEM 2% media with glucose for 24 h before switching to glucose-free media. Cells were then exposed to Compound 12 for 18 h before being collected for mRNA analysis. (D) 50K PBMC cells were cultured in 96 well plates before being exposed to Compound 12 for 4 h. Cells were then treated with LPS (10 ng/ml) for additional 2 h. Media were then collected and IL-1b concentration was determined by ELISA.
A SAR study was performed by constructing analogs of Compound 1. […] Compound 12 was further tested in PBMCs. Briefly, PBMCs were treated with Compound 12 at various concentrations for 4 h before exposure to LPS (10 ng/ml) for 2 h.

The subject of a further experiment is phospho-AMPK. The experiment can be described thus: phospho-AMPK / p-ACC immunoblotting in Beas2B cells (in vitro studies). Type of experiment: cell-based, Human. Here is the method: FIG. 3. (A) Beas2b cells were cultured in DMEM 2% media with glucose for 24 h before switching to glucose-free media. Cells were then exposed to either DMSO or Compound 1 (2 μM) in a time course before being collected for immunoblotting. (B) Beas2B cells were exposed to Compound 1 for 18 h at various doses before being collected for immunoblotting. (C) Beas2b cells were cultured in DMEM 2% media with glucose for 24 h before switching to glucose-free media. Cells were then exposed to AICAR at various doses with or without Compound 1 co-treatment. After 18 h, cells were collected before being assayed by immunoblotting.
as §1
FIG. 9. (A) Beas2b cells were cultured in DMEM 2% media with glucose for 24 h before switching to glucose-free media. Cells were then exposed to Compound 23 or metformin in a dose dependent manner for 18 h before being collected for immunoblotting. (B) Beas2b cells were cultured in DMEM 2% media with glucose for 24 h before switching to glucose-free media and treated with Compound 12 or Compound 23 in a dose dependent manner. After 6 h, cells were then collected for immunoblotting. (C) Beas2b cells were cultured in DMEM 2% media with glucose for 24 h before switching to glucose-free media and treated with Compound 12 or Compound 23 in a dose dependent manner. After 18 h, cells were then collected for immunoblotting. (D) Beas2b cells were transfected with AMPK phospho mimic T172D or phospho dead T172A mutant for 24 h. Cells were then switched to glucose-free media and exposed to Compound 23 in a dose or time dependent manner before being collected for immunoblotting. (E) Beas2b cells were transfected with control siRNA or Fbxo48 siRNA for 48 h before switching to glucose-free media. Cells were then exposed to Compound 23 in a dose dependent manner before being collected for immunoblotting. (F) Compound 23 chemical structure.
Compound 1 was studied in in vitro assays using Beas2B cells. […]
Compound 23 was tested in in vitro studies using Beas2B cells and compared with metformin.

Structures are written as SMILES.

One may read the IC50 as the concentration that inhibits the measured activity by half. A higher IC50 goes with a need for much substance. `OC(COc1ccc(F)cc1)CN(Cc1ccccc1)Cc1ccccc1` (stereo not shown) [Compound 12]: in the experiment with mice [1], the “CLP-induced lung injury (BAL cytokines, protein and cell counts)” value was “effectively reduce severities”; the “CLP-induced secretion of circulating proinflammatory cytokines (IL-6, TNF, IL1-β)” value was “significantly attenuated”. Moreover, the bacterial count entry in the experiment on mice [1] (peritoneal fluid) is reported as “without affecting bacterial count”. In the experiment with pAMPK, this molecule yielded a half-maximal inhibitory concentration (IC50) of less than 1 µg/mL. Also, in the experiment with mice [2], the lavage bacterial counts entry was “without affecting lavage bacterial counts”, the lavage cell counts result was “substantially decreased” and the lavage protein concentration entry is on record as “substantially decreased”. For the same molecule, the lavage proinflammatory cytokines entry in the experiment with mice [2] (dose dependent) is listed as “effectively reduces”. Moreover, in the experiment with mice [2] (immunoblotting), the “pAMPK levels within the lung tissue” value is “drastically increasing”. Also, in the experiment with AMPKα1 and AMPKα2 mRNA, the “mRNA levels of both AMPKα1 and AMPKα2” value is “effectively decreased”. For the same molecule, the “concentration effectively increasing phospho-AMPK and downstream p-ACC levels” value in the experiment with phospho-AMPK (Beas2b, with or without glucose, 18 h) was 100 to 500 nM.

In the experiment with pAMPK, `OC(COc1ccc(C(F)(F)F)cc1)CN(Cc1ccccc1)Cc1ccccc1` (stereo not shown) [Compound 23] gave a concentration for half-maximal inhibition (IC50) of less than 1 µg/mL. The “level of AMPK T172D phospho mimic mutant” value in the experiment on phospho-AMPK (Beas2b transfected with T172D mutant, glucose-free media) is listed as “drastically increases”. The “pAMPK and pACC levels after Fbxo48 knockdown” value in the experiment with phospho-AMPK (Beas2b, Fbxo48 siRNA 48 h, glucose-free media) is listed as “not able to further activate the pathway”. Besides, the “activity on pAMPK compared to Compound 12” value with phospho-AMPK (Beas2b, glucose-free media, 6 h and 18 h) is “comparable or slightly improved activity”. In addition, the “concentration range increasing pAMPK phosphorylation and downstream substrate ACC phosphorylation” value in the experiment with phospho-AMPK (Beas2b, glucose-free media, 18 h) is “submicromolar”.
